Data set [1] deals with polymorphonuclear eosinophils. The experiment in a line: Effect on eosinophils (locomotion or metabolism). The format is cell-based. As to conditions: locomotion or metabolism of polymorphonuclear eosinophils.
Data set [2] deals with human peripheral blood MP. The experiment in a line: Inhibition of Luminol enhanced chemiluminescence (respiratory burst) in opsonized zymosan activated MP. The format is cell-based. As to conditions: measured as mV/10^6 cells over a 29-30 minute period; six experiments; comparing experimental conditions, except 1 vs 10 μg of construct; FIG. 3A. The method, then:
(§1) (b) Preparation of cells. MP (95±2%) and neutrophils (95±2%) were obtained from the peripheral blood of fasting, non-smoking individual donors, using Ficoll-Paque centrifugation and further enrichment of MP by nylon wool adherence. Cell viability was established (≧94%) before and after the experiments by trypan blue dye exclusion.
(§2) (c) MLIF activity. In vitro MLIF activity was assessed either by the inhibition of MP chemotaxis towards zymosan (Sigma) activated serum in double-filter (upper filter 5.0 μm pore size (Nuclepore), lower cell-impermeable filter 8.0 μm pore size (Sartorius)) Boyden chambers, or by the inhibition of MP or neutrophil, Luminol™ (Eastman Kodak) enhanced chemiluminescence after opsonized zymosan particle ingestion, measured in Biorbit 1250 chemiluminometer (LKB) (n>6). In vivo MLIF activity was measured by its capacity to inhibit DNCB (1-chloro-2-4 dinitrobenzene) contact hypersensitivity reactions in individually-caged Harley short hair adult guinea pigs previously (14 days) sensitized with a vesicant DNCB dose (10 mg/ml acetone olive oil (4:1) soaked 5 mm diameter Whatman #2 filter paper disks). […] Disks were removed after 24 h, and redness-induration measured blindly a day later. […]
(§3) In vitro activity of native MLIF and its synthetic custom construct is measured. […]

The test system of data set [3] is human mononuclear phagocytes. The experiment in a line: Cytoplasmic cyclic AMP in human mononuclear phagocytes. The format is cell-based. As to conditions: interaction through a receptor on human mononuclear phagocytes.
Data set [4] deals with human peripheral blood MP. The experiment in a line: Inhibition of MP chemotaxis towards zymosan activated serum in double-filter Boyden chambers. The format is cell-based. As to conditions: Boyden chamber; native MLIF and construct in similar concentrations, comparable to each other; n=8 for each group; FIG. 3C. The procedure:
as §1, §2, §3

The subject of data set [5] is human peripheral blood neutrophils. As to the kind of experiment: Inhibition of Luminol enhanced chemiluminescence (respiratory burst) in opsonized zymosan activated neutrophils. The format is cell-based. As to conditions: measured as mV/10^6 cells over a 29-30 minute period; six experiments; comparing experimental conditions; FIG. 3B. The procedure:
as §1, §2, §3

Data set [6] has as its system DNCB contact hypersensitivity reactions in guinea pigs. The experiment in a line: Inhibition of DNCB contact hypersensitivity skin reaction. The format is in vivo, guinea pig. Conditions: for Histology of inhibited DNCB reactions: biopsies, compared to normal, non-interfered DNCB reactions; for DNCB skin reaction (mm diameter, or positive/negative with cut-off 5 mm) compared to PBS or virgin axenic medium control: intradermal injection 0.05 ml, native MLIF 8 μg/ml, custom construct 1, 10 or 100 μg/ml, comparable among them, FIG. 4. The procedure: (c) MLIF activity. In vitro MLIF activity was assessed either by the inhibition of MP chemotaxis towards zymosan (Sigma) activated serum in double-filter (upper filter 5.0 μm pore size (Nuclepore), lower cell-impermeable filter 8.0 μm pore size (Sartorius)) Boyden chambers, or by the inhibition of MP or neutrophil, Luminol™ (Eastman Kodak) enhanced chemiluminescence after opsonized zymosan particle ingestion, measured in Biorbit 1250 chemiluminometer (LKB) (n>6). In vivo MLIF activity was measured by its capacity to inhibit DNCB (1-chloro-2-4 dinitrobenzene) contact hypersensitivity reactions in individually-caged Harley short hair adult guinea pigs previously (14 days) sensitized with a vesicant DNCB dose (10 mg/ml acetone olive oil (4:1) soaked 5 mm diameter Whatman #2 filter paper disks). Intradermal injections of 0.05 ml of either native MLIF (8 μg/ml), MLIF custom construct (0.001-100 μg/ml), or pyrogen free phosphate buffered saline pH 7.4, were applied just beneath and simultaneous to the application of the eliciting dose of DNCB (0.05 mg/ml soaked paper disks). Disks were removed after 24 h, and redness-induration measured blindly a day later. Biopsies were obtained for histological evaluation in selected samples. The animals were not sacrificed.
(f) Statistical analysis. Results of in vitro MLIF activity were analyzed by non-parametric Mann-Whitney or Kruskall-Wallis analysis of variance test, and in vivo activity results by Student's t and Fisher's exact tests.
The reaction is measured in mm diameter against the eliciting dose, or as positive or negative reactions of the same with a cut-off criterium of 5 mm in diameter.

As to “M - Q - C - N - S (MQCNS; listed as Entamoeba histolytica) [native MLIF, oligopeptide isolated from the supernatant fluid of axenically grown E. histolytica, about 583 Daltons]”, the “Effect on other cells, such as eosinophils” value in data set [1] was “does not affect”. In addition, the “Areas under the curve of chemiluminescence, MP” value in data set [2] was “significantly (p<0.01) different”. The “Cytoplasmic mediator cyclic AMP” value in data set [3] was “increase”. The “Human peripheral blood MP chemotaxis compared to the normal chemotactic runs (i.e., 100%)” value in data set [4] is reported as “significantly lower (p<0.01)”. The “Areas under the curve of chemiluminescence, neutrophils” value in data set [5] is “significantly (p<0.01) different”. The Storage stability result (at −70° C.) is recorded as “storable”. The Heat stability entry (incubation at 56° C.) is “heat stable”. Moreover, in data set [6], the “Histology of inhibited DNCB reactions” value is recorded as “scarce mononuclear perivascular infiltrate” and the “DNCB skin reaction (mm diameter, or positive/negative with cut-off 5 mm) compared to PBS or virgin axenic medium control” value is reported as “significantly different (p<0.001)”.

Take MQCNS [custom construct]: in data set [2], the “Areas under the curve of chemiluminescence, MP” value is on record as “significantly (p<0.01) different”. Further, the “Human peripheral blood MP chemotaxis compared to the normal chemotactic runs (i.e., 100%)” value in data set [4] is “significantly lower (p<0.01)”. The “Areas under the curve of chemiluminescence, neutrophils” value in data set [5] is listed as “significantly (p<0.01) different”. In data set [6], the “Histology of inhibited DNCB reactions” value is on record as “scarce mononuclear perivascular infiltrate” and the “DNCB skin reaction (mm diameter, or positive/negative with cut-off 5 mm) compared to PBS or virgin axenic medium control” value is reported as “significantly different (p<0.001)”.
